Where two headings read alike, the source gives them in different places.
Experiments:
[1] = target: T1, human placental steroid sulfatase (STS) (Homo sapiens, UniProt P08842); experiment: STS in vitro radiosubstrate incubation (estrone-3-sulfate to estrone conversion); type: biochemical; conditions: relative conversion vs non-inhibited control (100%); test compound 10 μM; substrate E1S 1.0 μM; placental microsomes; n = 3; read-out: STS rel. conv. ± SD
T1 construct: from tissue; host or cells: human term placenta, microsomes
T1 sequence (P08842 22-583): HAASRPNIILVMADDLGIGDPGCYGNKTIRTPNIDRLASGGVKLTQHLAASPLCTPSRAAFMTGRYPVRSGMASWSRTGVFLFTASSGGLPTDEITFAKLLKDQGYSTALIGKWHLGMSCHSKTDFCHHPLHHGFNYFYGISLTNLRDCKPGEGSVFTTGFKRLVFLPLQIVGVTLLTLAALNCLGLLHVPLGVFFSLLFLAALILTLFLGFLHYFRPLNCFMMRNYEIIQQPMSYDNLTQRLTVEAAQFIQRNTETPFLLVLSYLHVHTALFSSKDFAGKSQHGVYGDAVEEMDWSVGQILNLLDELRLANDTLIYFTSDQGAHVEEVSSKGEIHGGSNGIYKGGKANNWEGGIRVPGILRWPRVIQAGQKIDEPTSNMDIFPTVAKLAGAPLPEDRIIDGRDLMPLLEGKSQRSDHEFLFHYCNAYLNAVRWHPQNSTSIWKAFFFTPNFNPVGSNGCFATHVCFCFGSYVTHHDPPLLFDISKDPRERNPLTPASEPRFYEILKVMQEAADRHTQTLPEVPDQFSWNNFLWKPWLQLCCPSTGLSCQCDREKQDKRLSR
Protocol: (§1) The ability of the synthesized compounds 8–13 to inhibit activity of steroid sulfatase (STS) and 17β-hydroxysteroid dehydrogenase type 1 (17β-HSD1) was examined. In vitro radiosubstrate incubations were performed with adapted literature methodsS2–4 and human placenta served as source of the enzymes. Radiolabelled steroids were obtained from American Radiolabeled Chemicals (St. Louis, MO, USA). Other chemicals and solvents of analytical grade purity were purchased from Sigma (St. Louis, MO, USA), from Fluka (Buchs, Switzerland) or from Merck (Darmstadt, Germany).
(§2) 3.2. Preparation of enzyme sources
(§3) Human term placentae were collected immediately after delivery and stored frozen at −80 °C.
(§4) Tissue specimens were homogenized with an Ultra-Turrax in 0.1 M HEPES buffer solution […]
(§5) (pH 7.3) containing 1 mM EDTA and 1 mM dithiotreitol, and cytosol and microsomas were obtained with fractionated centrifugation. Application of the human tissue was approved by the institutional Human Investigation Review Board.
(§6) 3.3. Incubation procedures
(§7) Enzymatic incubations were carried out in the HEPES buffer medium at a final volume of 200
(§8) µl. The substrate was added to the incubate in 20 μl of a 25 % v/v propylene glycol in HEPES buffer solution, whereas test compounds were applied in 10 μl of dimethyl sulfoxide solution.
Incubations were performed at 37 °C and terminated by cooling and the addition of organic solvents of the subsequent extraction procedure. Control samples with no inhibitor and blank samples were incubated simultaneously. The radioactivity of the products formed was measured by means of liquid scintillation counting (LSC) and taken as indicator of the […]
STS assays were performed using microsoma suspension and estrone-3-sulfate (E1S) substrate with [6,7-3H]estrone-3-sulfate tracer with incubations lasting for 20 min. Reactions were terminated by the addition of equal volume of methanol, and the product estrone (E1) was extracted with toluene.S4 […]
(§9) In the general procedure, incubations were performed as described. Concentrations of the substrates were 1.0 μM, and the test compounds were applied at 10 μM final concentration in the incubate. Relative conversions compared to non-inhibited controls (100%) were determined. The assays were performed in triplicate, and the mean value and the standard deviation (SD) were calculated.
(§10) In these cases, conversions were measured at 10–15 different concentrations in the appropriate interval between 0.001–50 μM. IC50 results were calculated by using unweighted iterative least squares logistic curve fitting by means of the “absolute IC50 calculation“ function of the GraphPad Prism 4.0 software (GraphPad Software, Inc., San Diego, CA, USA).

human OATP2B1 = target: T2, human OATP2B1 (Homo sapiens, UniProt O94956); experiment: Cascade Blue uptake assay of OATP2B1 transport activity; type: cell-based
T2 construct: expressed in transfected cells; host or cells: A431 cells
T2 sequence (O94956 1-709): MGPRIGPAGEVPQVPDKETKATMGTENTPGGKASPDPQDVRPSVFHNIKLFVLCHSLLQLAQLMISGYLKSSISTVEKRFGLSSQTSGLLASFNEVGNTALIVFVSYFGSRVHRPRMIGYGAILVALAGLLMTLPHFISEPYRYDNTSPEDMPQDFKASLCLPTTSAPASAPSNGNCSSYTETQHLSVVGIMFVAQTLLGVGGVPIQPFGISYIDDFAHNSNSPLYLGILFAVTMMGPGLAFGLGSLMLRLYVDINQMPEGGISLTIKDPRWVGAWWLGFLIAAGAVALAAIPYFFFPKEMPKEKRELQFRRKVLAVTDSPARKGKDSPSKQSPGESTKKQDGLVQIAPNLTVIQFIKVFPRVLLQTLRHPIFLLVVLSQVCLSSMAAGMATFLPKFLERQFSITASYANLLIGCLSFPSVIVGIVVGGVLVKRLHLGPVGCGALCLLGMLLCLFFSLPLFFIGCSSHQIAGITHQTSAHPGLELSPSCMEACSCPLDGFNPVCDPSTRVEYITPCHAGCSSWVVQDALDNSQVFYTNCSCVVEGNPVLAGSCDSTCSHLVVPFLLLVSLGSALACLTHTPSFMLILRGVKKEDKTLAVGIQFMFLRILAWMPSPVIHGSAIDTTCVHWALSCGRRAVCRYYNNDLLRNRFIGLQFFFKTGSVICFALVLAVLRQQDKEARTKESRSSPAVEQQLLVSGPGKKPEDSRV
Protocol: CascadeBlue assay.S1 A431 cells ([…] in 200 μl) overexpressing human OATP2B1 or transfected with the vector control were seeded on 96 well plates 16 hours prior to the transport measurement. Transport reaction was performed as described in.S1 Briefly, after washing the cells 3-times with 200 µl 1 × phosphate buffered saline (PBS) the cells were preincubated with test compounds in final concentrations from 0.03 to 50 µM or dimethyl sulfoxide (used as a solvent for the test compounds and serving as non-treated control) for 5 minutes at 37 °C. The reaction was started with the addition of 50 µl Cascade Blue (resulting in final concentration of 10 µM) and the cells were further incubated at 37 °C for 30 minutes.
The reaction was stopped by the addition of 200 µl ice-cold 1 × PBS, and after 3 washing steps the fluorescence remaining in the cells was determined by Enspire fluorescent plate reader (Perkin Elmer) at 400 nm excitation and 419 nm emission wavelengths. Transport activity was determined by subtracting fluorescence in mock transfected cells. Kinetics of inhibition was determined by Hill fit using the Origin 8.6 software. […]

[2] = target: T3, 17β-hydroxysteroid dehydrogenase type 1 (17β-HSD1) (Homo sapiens, UniProt P14061); experiment: 17β-HSD1 in vitro radiosubstrate incubation (estrone to 17β-estradiol conversion); type: biochemical; conditions: for remaining activity at 10 µM: read-out: 17β-HSD1 rel. conv. ± SD
T3 construct: from tissue; host or cells: human term placenta, cytosol
T3 sequence (P14061 1-328): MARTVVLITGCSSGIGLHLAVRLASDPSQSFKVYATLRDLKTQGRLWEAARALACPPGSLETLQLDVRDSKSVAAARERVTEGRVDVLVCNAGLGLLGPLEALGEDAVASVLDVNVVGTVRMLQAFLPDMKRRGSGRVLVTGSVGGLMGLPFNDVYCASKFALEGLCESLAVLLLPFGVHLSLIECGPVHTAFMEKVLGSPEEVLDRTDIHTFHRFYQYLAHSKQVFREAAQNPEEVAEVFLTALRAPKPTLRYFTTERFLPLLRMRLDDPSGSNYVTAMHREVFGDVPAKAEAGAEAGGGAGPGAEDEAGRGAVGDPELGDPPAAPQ
Protocol: as §1, §2, §3, §4, §5, §6, §7, §8
Incubations were performed at 37 °C and terminated by cooling and the addition of organic solvents of the subsequent extraction procedure. Control samples with no inhibitor and blank samples were incubated simultaneously. […]
In the 17β-HSD1 assays the cytosol was incubated using estrone (E1) substrate with [6,7-3H]estrone tracer and 0.1 mM NADPH cofactor excess. The incubation time was 2.5 min. The product 17β-estradiol (E2) was extracted with ethyl acetate and isolated by a TLC method.S5 […]
as §9, §10

[3] = A431 cells overexpressing human OATP2B1, Cascade Blue 10 μM, 30 min, 37 °C, read-out: OATP2B1 IC50 ± SD

Row | SMILES | remaining activity at 10 µM [1] [%] | IC50 (human OATP2B1) [nM] | remaining activity at 10 µM [2] [%] | IC50 [2] [nM] | IC50 ([2]; human placental cytosol, estrone 1.0 μM, 0.1 mM NADPH, read-out: 17β-HSD1 IC50 ± SD) [nM] | IC50 (human OATP2B1; [3]) [nM]
1 | CCOP(=O)(OCC)c1cc2c(cc1OC)CC[C@@H]1[C@@H]2CC[C@@]2(C)C(=O)CC[C@@H]12 [8a, diethyl (3-methoxy-13α-estra-1,3,5(10)-trien-17-on-2-yl)phosphonate] | 84 ± 4 | 1800 ± 300 | 60 ± 3 |  |  | 
2 | COc1cc2c(cc1P(=O)(c1ccccc1)c1ccccc1)[C@H]1CC[C@@]3(C)C(=O)CC[C@H]3[C@@H]1CC2 [8b, (3-methoxy-13α-estra-1,3,5(10)-trien-17-on-2-yl)diphenylphosphine oxide] | 80 ± 8 | 1200 ± 100 |  | 4100 ± 1100 |  | 
3 | CCOP(=O)(OCC)c1cc2c(cc1O)CC[C@@H]1[C@@H]2CC[C@@]2(C)C(=O)CC[C@@H]12 [9a, diethyl (3-hydroxy-13α-estra-1,3,5(10)-trien-17-on-2-yl)phosphonate] | 97 ± 5 | 2100 ± 200 |  | 1500 ± 300 |  | 
4 | C[C@@]12CC[C@@H]3c4cc(P(=O)(c5ccccc5)c5ccccc5)c(O)cc4CC[C@H]3[C@@H]1CCC2=O [9b, (3-hydroxy-13α-estra-1,3,5(10)-trien-17-on-2-yl)diphenylphosphine oxide] | 77 ± 10 | 2600 ± 200 |  |  | 180 ± 60 | 
5 | CCOP(=O)(OCC)c1cc2c(cc1OCc1ccccc1)CC[C@@H]1[C@@H]2CC[C@@]2(C)C(=O)CC[C@@H]12 [10a, diethyl (3-benzyloxy-13α-estra-1,3,5(10)-trien-17-on-2-yl)phosphonate] | 85 ± 7 | 200 ± 20 | 64 ± 3 |  |  | 
6 | C[C@@]12CC[C@@H]3c4cc(P(=O)(c5ccccc5)c5ccccc5)c(OCc5ccccc5)cc4CC[C@H]3[C@@H]1CCC2=O [10b, (3-benzyloxy-13α-estra-1,3,5(10)-trien-17-on-2-yl)diphenylphosphine oxide] | 85 ± 5 | 1000 ± 100 | 73 ± 3 |  |  | 
7 | CCOP(=O)(OCC)c1c(OC)ccc2c1CC[C@@H]1[C@@H]2CC[C@@]2(C)C(=O)CC[C@@H]12 [11a, diethyl (3-methoxy-13α-estra-1,3,5(10)-trien-17-on-4-yl)phosphonate] | 93 ± 7 | 2800 ± 1500 | 100 ± 5 |  |  | 
8 | COc1ccc2c(c1P(=O)(c1ccccc1)c1ccccc1)CC[C@@H]1[C@@H]2CC[C@@]2(C)C(=O)CC[C@@H]12 [11b, (3-methoxy-13α-estra-1,3,5(10)-trien-17-on-4-yl)diphenylphosphine oxide] | 80 ± 5 | 2500 ± 400 | 106 ± 8 |  |  | 
9 | CCOP(=O)(OCC)c1c(O)ccc2c1CC[C@@H]1[C@@H]2CC[C@@]2(C)C(=O)CC[C@@H]12 [12a, diethyl (3-hydroxy-13α-estra-1,3,5(10)-trien-17-on-4-yl)phosphonate] | 93 ± 6 | 1400 ± 100 | 84 ± 4 |  |  | 
10 | C[C@@]12CC[C@@H]3c4ccc(O)c(P(=O)(c5ccccc5)c5ccccc5)c4CC[C@H]3[C@@H]1CCC2=O [12b, (3-hydroxy-13α-estra-1,3,5(10)-trien-17-on-4-yl)diphenylphosphine oxide] | 93 ± 4 | > 50000 | 100 ± 5 |  |  | 
11 | CCOP(=O)(OCC)c1c(OCc2ccccc2)ccc2c1CC[C@@H]1[C@@H]2CC[C@@]2(C)C(=O)CC[C@@H]12 [13a, diethyl (3-benzyloxy-13α-estra-1,3,5(10)-trien-17-on-4-yl)phosphonate] | 87 ± 5 | 300 ± 20 | 92 ± 3 |  |  | 
12 | C[C@@]12CC[C@@H]3c4ccc(OCc5ccccc5)c(P(=O)(c5ccccc5)c5ccccc5)c4CC[C@H]3[C@@H]1CCC2=O [13b, (3-benzyloxy-13α-estra-1,3,5(10)-trien-17-on-4-yl)diphenylphosphine oxide] | 105 ± 7 | 300 ± 20 | 75 ± 2 |  |  | 
13 | C[C@@]12CC[C@@H]3c4ccc(OCc5ccccc5)cc4CC[C@H]3[C@@H]1CCC2=O [13αE1OBn, reference compound] |  |  |  |  |  | 1700 ± 900
14 | COc1ccc2c(c1)CC[C@@H]1[C@@H]2CC[C@@]2(C)C(=O)CC[C@@H]12 [13αE1OMe, reference compound] |  |  |  |  |  | 3400 ± 300

Reference: paper PMC6244214, “Pd-Catalyzed microwave-assisted synthesis of phosphonated 13α-estrones as potential OATP2B1, 17β-HSD1 and/or STS inhibitors” (Beilstein Journal of Organic Chemistry, 2018)
